From patent publication US20230041563A1, “N-(1,3,4-OXADIAZOL-2-YL)ARYLCARBOXAMIDES OR SALTS THEREOF, PREPARATION METHODS, HERBICIDAL COMPOSITIONS AND USES THEREOF” (priority 2018, published 2023)

Columns and labels:
Format in all cases: in vivo
Abutilon theophrasti [1] = test: Weeding effect in post-emergence stage (greenhouse pot spray)
Procedure, shortened: (§1)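 Fresh-weight control rate was assessed 3 weeks after post-emergence spray-tower application at doses of 500–15 g a.i./ha, triplicate. Weeds were treated at the 2–3 leaf stage, 2 weeks post-sowing, using acetone solutions with Tween 80 plus 1.5 L/ha methyl oleate emulsifiable concentrate.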

Digitaria sanguinalis [2] = test: as above
Procedure, shortened: as §1

Echinochloa crusgalli = test: as above
Procedure, shortened: as §1

Setaria viridis = test: as above; conditions: Table 3, dose 60 g a.i./ha
Procedure, shortened: as §1

Amaranthus retroflexus = test: as above
Procedure, shortened: as §1

Stellaria media = test: as above
Procedure, shortened: as §1

Abutilon theophrasti [3] = test: Post-emergence control experiment of R configuration compound activity (weeds 4-5 leaf stage, 25 days)
Description: (§2) Experiment on weeding effect in post-emergence stage: after 3-4 weeks of sowing, the test plants were treated in the 1.5-2 leaf stage of the directly sowed rice Longyang 16, and the 4-5 leaf stage of weeds. After the application of the compounds of the present invention, the plants were cultured for 25 days in the greenhouse, and then the experimental results of the weeding were counted.

Digitaria sanguinalis [4] = test: as above
Description: as §2

Green Setaria viridis = test: as above
Description: as §2

Leptochloa chinensis = test: as above
Description: as §2

weeds = test: Actual control effects and combined effects of mixtures of active ingredients (i) and (ii), stem-leaf treatment, Gowing method; conditions: stem-leaf treatment, 20 days
Rice (Longyang 16) = test: Post-emergence control experiment of R configuration compound activity (directly sowed rice 1.5-2 leaf stage, 25 days)
Description: as §2
Longyang 16 is a representative and important long-grain fragrant rice in Northeast China. Long-grain fragrant rice is more sensitive to herbicides, especially to HPPD herbicides such as Mesotrione, Benzobicylon and the like, which are prone to causing phytotoxicity.

`Cc1nnc(NC(=O)c2ccc(C(F)(F)F)c([S+](C)[O-])c2F)o1` (racemic) [Compound 1-2] was tested, and the “Abutilion theophrasti (activity level)” value (Abutilon theophrasti [1]; Table 2, dose 60 g a.i./ha) was 4 (Level 4: growth control rate is greater than or equal to 60% and less than 85%), the “Abutilion theophrasti (activity level)” value (Abutilon theophrasti [1]; Table 2, dose 125 g a.i./ha) was 4 (Level 4: growth control rate is greater than or equal to 60% and less than 85%) and the “Abutilion theophrasti (activity level)” value (Abutilon theophrasti [1]; Table 2, dose 250 g a.i./ha) was 4 (Level 4: growth control rate is greater than or equal to 60% and less than 85%). The “Abutilion theophrasti (activity level)” value (Abutilon theophrasti [1]; Table 2, dose 500 g a.i./ha) was 4 (Level 4: growth control rate is greater than or equal to 60% and less than 85%), the “Abutilon theophrasti (activity level)” value (Abutilon theophrasti [1]; Table 3, dose 60 g a.i./ha) was 4 (Level 4: growth control rate is greater than or equal to 60% and less than 85%) and the “Digitaria sanguinalis (activity level)” value (Digitaria sanguinalis [2]; Table 2, dose 60 g a.i./ha) was 3 (Level 3: growth control rate is greater than or equal to 40% and less than 60%). The “Digitaria sanguinalis (activity level)” value (Digitaria sanguinalis [2]; Table 2, dose 125 g a.i./ha) was 3 (Level 3: growth control rate is greater than or equal to 40% and less than 60%), the “Digitaria sanguinalis (activity level)” value (Digitaria sanguinalis [2]; Table 2, dose 250 g a.i./ha) was 4 (Level 4: growth control rate is greater than or equal to 60% and less than 85%) and the “Digitaria sanguinalis (activity level)” value (Digitaria sanguinalis [2]; Table 2, dose 500 g a.i./ha) was 4 (Level 4: growth control rate is greater than or equal to 60% and less than 85%). The “Digitaria sanguinahs (activity level)” value (Digitaria sanguinalis [2]; Table 3, dose 60 g a.i./ha) was 3 (Level 3: growth control rate is greater than or equal to 40% and less than 60%), the “Echinochloa crusgah (activity level)” value (Echinochloa crusgalli; Table 2, dose 60 g a.i./ha) was 3 (Level 3: growth control rate is greater than or equal to 40% and less than 60%) and the “Echinochloa crusgah (activity level)” value (Echinochloa crusgalli; Table 2, dose 125 g a.i./ha) was 4 (Level 4: growth control rate is greater than or equal to 60% and less than 85%). The “Echinochloa crusgah (activity level)” value (Echinochloa crusgalli; Table 2, dose 250 g a.i./ha) was 4 (Level 4: growth control rate is greater than or equal to 60% and less than 85%), the “Echinochloa crusgah (activity level)” value (Echinochloa crusgalli; Table 2, dose 500 g a.i./ha) was 4 (Level 4: growth control rate is greater than or equal to 60% and less than 85%) and the “Echinochloa crusgali (activity level)” value (Echinochloa crusgalli; Table 3, dose 60 g a.i./ha) was 3 (Level 3: growth control rate is greater than or equal to 40% and less than 60%). For the same compound, the “Setaria viridis (activity level)” value (Setaria viridis) was 3 (Level 3: growth control rate is greater than or equal to 40% and less than 60%), the “Amaranthus retroflexus (activity level)” value (Amaranthus retroflexus; Table 2, dose 60 g a.i./ha) was 4 (Level 4: growth control rate is greater than or equal to 60% and less than 85%) and the “Amaranthus retroflexus (activity level)” value (Amaranthus retroflexus; Table 2, dose 125 g a.i./ha) was 4 (Level 4: growth control rate is greater than or equal to 60% and less than 85%). For the same compound, the “Amaranthus retroflexus (activity level)” value (Amaranthus retroflexus; Table 2, dose 250 g a.i./ha) was 4 (Level 4: growth control rate is greater than or equal to 60% and less than 85%), the “Amaranthus retroflexus (activity level)” value (Amaranthus retroflexus; Table 2, dose 500 g a.i./ha) was 4 (Level 4: growth control rate is greater than or equal to 60% and less than 85%) and the “Stellaria media (activity level)” value (Stellaria media; Table 2, dose 60 g a.i./ha) was 3 (Level 3: growth control rate is greater than or equal to 40% and less than 60%). The “Stellaria media (activity level)” value (Stellaria media; Table 2, dose 125 g a.i./ha) was 3 (Level 3: growth control rate is greater than or equal to 40% and less than 60%), the “Stellaria media (activity level)” value (Stellaria media; Table 2, dose 250 g a.i./ha) was 4 (Level 4: growth control rate is greater than or equal to 60% and less than 85%) and the “Stellaria media (activity level)” value (Stellaria media; Table 2, dose 500 g a.i./ha) was 4 (Level 4: growth control rate is greater than or equal to 60% and less than 85%). For the same compound, the “Ablation theophrasti (30 g a.i./ha) inhibition rate” value (Abutilon theophrasti [3]; 30 g a.i./ha) was 60%, the “Digitaria sanguinalis (30 g a.i./ha) inhibition rate” value (Digitaria sanguinalis [4]; 30 g a.i./ha) was 0% and the “Green Setaria viridis (60 g a.i./ha) inhibition rate” value (Green Setaria viridis; 60 g a.i./ha) was 20%. The “Leptochloa chinensis (60 g a.i./ha) inhibition rate” value (Leptochloa chinensis; 60 g a.i./ha) was 0%, the “Control effect of (i) alone at corresponding dose” value (shortened to “Control effect of (i) alone”) (weeds; Cyperus difformis, (i) 1 g a.i./mu) was 7.8% and the “Control effect of (i) alone” value (weeds; Cyperus difformis, (i) 5 g a.i./mu) was 36.5%. For the same compound, the “Control effect of (i) alone” value (weeds; Digitaria sanguinalis, (i) 1 g a.i./mu) was 18.2%, the “Control effect of (i) alone” value (weeds; Digitaria sanguinalis, (i) 2 g a.i./mu) was 40.6% and the “Control effect of (i) alone” value (weeds; Digitaria sanguinalis, (i) 3 g a.i./mu) was 65.3%. The “Control effect of (i) alone” value (weeds; Echinochloa phyllopogon, (i) 1 g a.i./mu) was 12.6%, the “Control effect of (i) alone” value (weeds; Echinochloa phyllopogon, (i) 2 g a.i./mu) was 26.8% and the “Control effect of (i) alone” value (weeds; Echinochloa phyllopogon, (i) 3 g a.i./mu) was 53.7%. For the same compound, the “Control effect of (i) alone” value (weeds; Leptochloa chinensis, (i) 5 g a.i./mu) was 6.5%, the “Control effect of (i) alone” value (weeds; Leptochloa chinensis, (i) 15 g a.i./mu) was 30.6% and the “Control effect of (i) alone” value (weeds; Monochoria vaginalis, (i) 3 g a.i./mu) was 7.8%. For the same compound, the “Control effect of (i) alone” value (weeds; Monochoria vaginalis, (i) 5 g a.i./mu) was 7.8%, the “Control effect of (i) alone” value (weeds; Monochoria vaginalis, (i) 15 g a.i./mu) was 30.9% and the “Control effect of (i) alone” value (weeds; Sagittaria trifolia, (i) 1 g a.i./mu) was 19.7%. For the same compound, the “Control effect of (i) alone” value (weeds; Sagittaria trifolia, (i) 3 g a.i./mu) was 50.3%.
Compound `CCC[S@+]([O-])c1c(C(F)(F)F)ccc(C(=O)Nc2nnc(C)o2)c1F` [1-8 (S-configuration)] has an inhibition at 30 g/ha (Abutilon theophrasti [3]; Abutilon theophrasti, post-emergence, read-out: Ablation theophrasti (30 g a.i./ha) inhibition rate) of 0%, an inhibition at 30 g/ha (Digitaria sanguinalis [4]; Digitaria sanguinalis, post-emergence, read-out: Digitaria sanguinalis (30 g a.i./ha) inhibition rate) of 0% and an inhibition at 30 g/ha (Green Setaria viridis; Setaria viridis, post-emergence, read-out: Green Setaria viridis (30 g a.i./ha) inhibition rate) of 0%. For the same compound, the inhibition at 60 g/ha (Green Setaria viridis; Setaria viridis, post-emergence, read-out: Green Setaria viridis (60 g a.i./ha) inhibition rate) was 15%, the inhibition at 60 g/ha (Leptochloa chinensis; Dinebra chinensis, post-emergence, read-out: Leptochloa chinensis (60 g a.i./ha) inhibition rate) was 0% and the inhibition at 125 g/ha (Leptochloa chinensis; Dinebra chinensis, post-emergence, read-out: Leptochloa chinensis (125 g a.i./ha) inhibition rate) was 10%. The “activity against key weed Leptochloa chinensis / key weeds, in words” value (Leptochloa chinensis; in vivo) was “lower activity”, the “Rice (Longyang 16) (250 g a.i./ha) inhibition rate” value (Rice (Longyang 16); 250 g a.i./ha) was 15% and the “Rice (Longyang 16) (500 g a.i./ha) inhibition rate” value (Rice (Longyang 16); 500 g a.i./ha) was 25%. For the same compound, the “safety on rice (Longyang 16), in words” value (Rice (Longyang 16); in vivo) was “not safe”.
